Source: patent US6372690B1 (McGill University, priority 1998, dated 2002)
“Also recorded” adds a separate entry of the source.

Experiments:
ragweed [1] = test: Example 3: assay with other non-ionic surfactants, ragweed plots in waste area situation; assay type: in vivo
Experimental: This experiment was conducted to test another solution containing another non-ionic surfactant. The experiment was conducted on plots behind a beef barn complex, on ragweed of 6 to 10 inches in height, fully flowered, in a very hard and gravely soil, such as in a waste area situation. The experiment was conducted as a completely randomized design (CRD) with three replicates.
Each plot has a surface of one (1) m^2. The sprayer used was a small compressed air sprayer with 210 kPa pressure and a T-Jet™ 8002 nozzle. The plots were sprayed Sep. 3, 1996 at 10:00 a.m. under a bright sunshine and a temperature of 28° C. In all instances, the efficacy of the solution was evaluated 20-30 minutes, 2-4 hrs, 16-24 hrs, and 2-5 days after spraying. The efficacy of the solution was determined based on level of plant deterioration.
In this experiment, 14 different treatments were applied to the different plots (with three replicates/treatment).
Once it had been determined that a surfactant could possibly increase efficacy of the NaCl at the same time as reducing the spray volume needed, another non-ionic surfactant, namely Citowett™, was introduced into the trials. All surfactants were applied at the rates usually recommended in the Ontario Guide to Chemical Weed Control (OMAFRA, 1997).

ragweed [2] = test: General conclusions on ragweed control from the experiments; assay type: in vivo
ragweed [3] = test: Example 2: determination of an adequate volume sprayed, ragweed plots sprayed at 1000 l/ha; assay type: in vivo
Experimental: This experiment was conducted to determine if increasing the spray volume to the point where the plants were completely covered to the run-off stage would improve efficacy.
This experiment was conducted on plots within a fencerow of an agricultural field where ragweed plants had attained 12 to 20 inches in height, and were in full flower. The experiment was conducted as a completely randomized design (CRD) with three replicates.
Each plot has a surface of one (1) m^2. The sprayer used was a Hardi™ pack sprayer with Hardi™ nozzle and 200-220 kPa of pressure. The plots were sprayed Aug. 29, 1996 at 13:30 under a bright sunshine and a temperature of 29° C. The spray volume used was 1000 l/ha or 100 ml/m^2 plot.
In all instances, the efficacy of the solution was evaluated 30 minutes, 2-4 hrs, 16-24 hrs, and 2-5 days after spraying. The efficacy of the solution was determined based on level of plant deterioration.
In this experiment, 6 different treatments (having three replicates each) were subjected to the different plots.

all types of vegetation = conditions: Frear, Chemistry of Pesticides 3rd ed. p. 401, 1955; cited from earlier work
ragweed [4] = test: Example 4: concentration of salt with or without surfactants, tall ragweed in cultivated field; assay type: in vivo; conditions: tall ragweed (40-60 inches)
Experimental: This experiment was conducted on plot of tall ragweed (40-60 inches), fully flowered, in a cultivated field situation. The experiment was conducted as a completely randomized design (CRD) with three replicates.
(§1) Each plot has a surface of four (4) m^2. The sprayer used was a Hardi™ pack sprayer with 200-220 kPa pressure and T-Jet™ 8002 nozzle. The plots were sprayed Sep. 6, 1996 at 09:00 a.m. under a bright sunshine and a temperature of 26° C. In all instances, the efficacy of the solution was evaluated 30 minutes, 2-4 hrs, 16-24 hrs, and 2-5 days after spraying. The efficacy of the solution was determined based on level of plant deterioration.
(§2) In this experiment, 8 different treatments were applied to the different plots (with three replicates/treatment).

ragweed [5] = test: Example 5: optimization of salt concentration with or without surfactants, cut ragweed in roadside situation; assay type: in vivo
Experimental: This experiment was conducted on plots having ragweed 4 to 6 inches tall, in flower, and which had been cut at least once, in a roadside situation. The experiment was conducted as a randomized complete block design (RCBD) with three replicates.
as §1, with “small compressed air” for “Hardi™ pack”, “210” for “200-220”, “13:30,” for “09:00 a.m.”, “29°” for “26°”
as §2
Only the 8% and 12% rates were considered in this experiment because it had been observed that there was no efficacy or economic benefit to using the 16% or 20% rates of NaCl. Both NaCl concentrations were applied alone or with each of the three surfactants.

ragweed [6] = test: Spraying of ragweed plants as described in the description and FIGS. 1-3; assay type: in vivo; conditions: 12% NaCl solution
broad-leaved plantain = test: Selective control of broad-leaved plantain in turf (FIG. 4); assay type: in vivo; conditions: 12% NaCl solution; 24 hours following the application

| Structure (SMILES) | efficacy compared with the NaCl solutions (ragweed [1]; 12% KNO3) | suitability as alternative to NaCl (ragweed [2]; KNO3 at the 12% rate) | activity at damaging the ragweed (ragweed [3]; 8% NaCl) | overall efficacy (ragweed [3]; 12% NaCl) | difference in effect between 12% and 16% solution (ragweed [3]; 16% NaCl versus 12% NaCl, any time except 30 minutes after application) | speed of wilting (ragweed [3]; 16% NaCl, 30 minutes after application) | reaction of ragweed to the sprays (ragweed [3]; NaCl at all three concentrations (8, 12, 16% W/V), 30 minutes after spraying) | herbicidal effect and selectivity (all types of vegetation) | control (ragweed [4]; 8% NaCl) | efficiency compared with higher concentrations (ragweed [4]; 12% NaCl without surfactant) | control of ragweed (ragweed [5]; 8% NaCl alone) | effect 30 minutes after application (ragweed [5]; 12% NaCl alone, 30 minutes) | effect 2 days after spraying (ragweed [5]; 12% NaCl alone, 2 days) | efficacy compared with the 12% solution (ragweed [1]; 8% NaCl alone) | overall damage to the ragweed compared with the 12% solution (ragweed [1]; 16% NaCl) | overall damage to the ragweed compared with the 12% solution (ragweed [1]; 20% NaCl) | ragweed control (general conclusion) (ragweed [2]; salt solutions, especially NaCl solutions) | effect on ragweed plants (FIGS. 2 and 3) (ragweed [6]; 24 hours following spraying) | effect on ragweed plant (FIG. 1) (ragweed [6]; within 6 hours of applying) | control of broad-leaved plantain in turf (FIG. 4) (broad-leaved plantain) |
| --- | --- | --- | --- | --- | --- | --- | --- | --- | --- | --- | --- | --- | --- | --- | --- | --- | --- | --- | --- | --- |
| O=[N+]([O-])[O-].[K+] [KNO3, potassium nitrate, reference compound] | not as effective as any of the NaCl solutions | not a viable alternative to NaCl |  |  |  |  |  |  |  |  |  |  |  |  |  |  |  |  |  |  |
| [Cl-].[Na+] [NaCl, sodium chloride] |  |  | there was activity but it did not seem to be as effective as the 12% concentration | sufficient | little difference | appeared to have wilted more quickly than those treated with 12% | the inflorescences were drooping | will kill all types of vegetation, without any selection | slightly lower | as efficient as 16% or 20% | inferior control of ragweed compared with the 12% solution | drooping | complete necrosis | not as effective as the 12% solution | did not visibly improve overall damage to the ragweed | did not visibly improve overall damage to the ragweed | effective at ragweed control | drooping of ragweed staminate flowers and desiccation of leaves; also recorded: desiccated | curling and wilting | selective control |
